Legend:
PDE III = target: T1, PDE III (Homo sapiens, UniProt Q14432); experiment: inhibition of PDE III isolated from human platelets; assay type: biochemical; details: for [IC50]theophylline / [IC50]substance: PDE III, quotient of IC50 values, theophylline = 1; for IC50: human platelets, cAMP 0.5 μmol/l, 37° C., 20 minutes, read-out: -log[IC50] PDE III (converted)
T1 construct: PDE III isolated from human platelets; from tissue; host or cells: human platelets
Text: (§1) The inhibition of phosphodiesterases of classes III (PDE III=high-affinity cAMP-PDE which can be inhibited by cGMP) and IV (PDE IV=high-affinity cAMP-PDE which cannot be inhibited by cGMP, Rolipram-sensitive) is regarded as being particularly conclusive for a bronchospasmolytic and/or antiinflammatory action which may be expected [H. Hidaka et al., Adv. Cycl. Nucl. Res. 13, 145 (1984); Tips 5, 237 (1984); R. Weishaar et al., J. Med. Chem. 28, 537 (1985); S. A. Harrison et al., Molec. Pharmac. 29, 506 (1986); J. Klein-Tebbe et al., Allergologie 12, 12 (1989); C. Schudt et al., Allergologie 12, 12 (1989)].
(§2) The PDE inhibition of the compounds according to the invention was therefore determined on a PDE III isolated from human platelets and PDE IV isolated from human neutrophilic polymorphonuclear cells (PMNs) and from the canine trachea. The phosphodiesterases III and IV are isolated by chromatography by the method of Polson et al., Biochem. Pharmacol. 31, 3403-3406 (1982).
(§3) The substances are dissolved in DMSO and diluted further. From a series of solutions diluted up to a hundred-fold, 2.1 μl portions are taken and 212 μl reaction mixture are added. The reaction mixture contains Hepes (100 mmol/l), DTE (5 mmol/l), MgCl2 (5 mmol/l), CaCl2 (10 μmol/l), BSA fraction V 0.5 mg/ml, cAMP 0.5 μmol/l, 2,8-^3 H-cAMP 250,000 cpm/ml (0.3 μCi/ml, s.a. 33.5 μCi/mmol) and SV (snake venom) (25 μg/212 μl test batch).
(§4) The reaction is started by addition of 10 μl PDE to the reaction mixture and to the substance batch. The mixtures are then incubated at 37° C. for 20 minutes. The reaction is stopped by heating at 95° C. for 45 seconds. After the samples have cooled, the SV solution is added, the 5-AMP formed being cleaved. After incubation for 30 minutes at 37° C., this reaction is stopped by addition of 1 ml anion exchanger suspension. The cAMP which remains is thereby bonded. The adenosine formed remains in the supernatant after centrifugation and can be measured in an aliquot by the radioactivity contained therein.

PDE IV [1] = experiment: inhibition of PDE IV from the canine trachea; assay type: biochemical; details: for [IC50]theophylline / [IC50]substance: PDE IV canine trachea, quotient of IC50 values, theophylline = 1; for -log[IC50] PDE IV canine trachea: cAMP 0.5 μmol/l, 37° C., 20 minutes
Text: as §1, §2, §3, §4

[2] = tested on: histamine-induced bronchospasm; experiment: histamine-induced bronchospasm on the anaesthetized guinea-pig; assay type: in vivo
Method: The bronchospasmolytic action was furthermore determined on the model of "histamine-induced bronchospasm on the anaesthetized guinea-pig":
In this model, pharmacodynamic and toxic effects on internal sensitive receptors, on the respiration and on the cardiovascular system of guinea-pigs are recorded simultaneously [U. Kilian, E. Muller, E. Ch.
A histamine spasm before administration of the substance was compared with several histamine spasms after administration of the substance. The test substances were administered intravenously (i.v.) and/or intrajejunally (i.j.).

PDE IV [3] = experiment: inhibition of PDE IV from human neutrophilic polymorphonuclear cells (PMNs); assay type: biochemical; details: for [IC50]theophylline / [IC50]substance: PDE IV human PMNs, quotient of IC50 values, theophylline = 1; for -log[IC50] PDE IV PNMs: human neutrophilic polymorphonuclear cells, cAMP 0.5 μmol/l, 37° C., 20 minutes
Text: as §1, §2, §3, §4

[4] = tested on: tracheal ring chain of the guinea-pig; experiment: bronchospasmolytic action on the tracheal ring chain of the guinea-pig in vitro (relaxation of stable tonic spontaneous contraction); assay type: cell-based; details: for EC50: Cavia porcellus, EC50 in mol/l, 50% of the maximum relaxation achievable with (-)isoprenaline 10^-6 mol/l, spontaneous contraction, 37° C.; for [EC50]theophylline / [EC50]substance: quotient of EC50 values, theophylline = 1
Method: (§5) The bronchospasmolytic action of the compounds on the tracheal ring chain of the guinea-pig was tested in vitro as follows: Four parallel tracheal ring chains, each consisting of 6 individual rings, of the guinea-pig (female and male, 430-600 g), in an organ bath [5 ml, Krebs-Henseleit solution with addition of phentolamine (10^-5 mol/l), 37° C., pretension of the organs 2 g, gassing with carbogen] develop a stable, tonic spontaneous contraction after about 20 to 30 minutes. Relaxation can be brought about on these permanently contracted organs under isometric measurement conditions by application of the test substance in a cumulatively semi-logarithmically increasing concentration (e.g. 1×10^-6 +2×10^-6 +7×10^-6 +2×10^-5etc. mol/l), a constant relaxation response being awaited after each individual dose of the test substance before the next higher concentration is applied. A complete dose/effect curve of the test substance is thus obtained over a period of 20 to 30 minutes. The particular relaxation is expressed as the percentage fraction of the maximum relaxation which can be achieved by addition of (-)isoprenaline (10^-6 mol/l).

[5] = tested on: acetylcholine-induced bronchospasm; experiment: protective action against acetylcholine-induced bronchospasm on the conscious guinea-pig; assay type: in vivo; details: Cavia porcellus, 0.5 h; verum, oral, 100 μmol/kg, 30 minutes after administration; protected = latency period at least three times; read-out: Number of animals protected/number of animals used (converted)
Method: The bronchospasmolytic action was additionally tested on the model of "Protective action against acetylcholine-induced bronchospasm on the conscious guinea-pig":
Guinea-pigs (250-350 g) are exposed in a closed Plexiglas cylinder (volume 5 l) to an acetylcholine mist (0.06% in 0.9% sodium chloride solution; ultrasonic mister Heyer Use 77) twice before administration of the substance at an interval of 20 minutes, and 30 minutes after administration of the substance. The time from the start of misting to the onset of clear respiratory exertion (under certain circumstances hypoxic convulsions in the lateral position) is measured and defined as the latency period. A prolonging of the latency period after administration of the substance to at least three times the average latency period before administration of the substance is regarded as a protective action, and the number of protected animals in the group is stated. The test substances are administered orally by means of a stomach tube (dose 100 μmol/kg, volume 1 ml/kg, suspending agent 4% Methocel suspension in 0.9% sodium chloride solution).
The test substance is administered perorally by means of a stomach tube (standard dose 100 μmol, volume 1 ml 4% Methocel suspension in 0.9% sodium chloride solution/kg). After 30 minutes, the animals are exposed to the acetylcholine mist again and the latency periods are measured. Prolonging of the latency period to at least three times the length is regarded as a protective action.

[6] = tested on: trachea (tracheal ring chain of the guinea-pig); experiment: trachea-relaxing action: relaxation of contractions generated by histamine, carbachol, prostaglandin, ovalbumin and leukotriene; assay type: cell-based; details: Cavia porcellus; read-out: trachea-relaxing action, contraction by OA (converted)
Method: as §5, with “mol/l). The concentration of the test substance which causes 50% of the maximum relaxation which can be achieved serves as a measure of the bronchodilatory activity, expressed by the negative logarithm of the EC50 mol/l: -log[EC50 ].” for “mol/l).”
The trachea-relaxing action of compounds 3 and 4 was additionally tested by relaxation of the contractions generated by histamine (His), carbachol (CC), prostaglandin (PGF2alpha), ovalbumin (OA) and leukotriene (LTC4).

[7] = i.j. (intrajejunal), 20 μmol/kg
[8] = i.j. (intrajejunal), 60 μmol/kg

T1 sequence (Q14432 whole entry): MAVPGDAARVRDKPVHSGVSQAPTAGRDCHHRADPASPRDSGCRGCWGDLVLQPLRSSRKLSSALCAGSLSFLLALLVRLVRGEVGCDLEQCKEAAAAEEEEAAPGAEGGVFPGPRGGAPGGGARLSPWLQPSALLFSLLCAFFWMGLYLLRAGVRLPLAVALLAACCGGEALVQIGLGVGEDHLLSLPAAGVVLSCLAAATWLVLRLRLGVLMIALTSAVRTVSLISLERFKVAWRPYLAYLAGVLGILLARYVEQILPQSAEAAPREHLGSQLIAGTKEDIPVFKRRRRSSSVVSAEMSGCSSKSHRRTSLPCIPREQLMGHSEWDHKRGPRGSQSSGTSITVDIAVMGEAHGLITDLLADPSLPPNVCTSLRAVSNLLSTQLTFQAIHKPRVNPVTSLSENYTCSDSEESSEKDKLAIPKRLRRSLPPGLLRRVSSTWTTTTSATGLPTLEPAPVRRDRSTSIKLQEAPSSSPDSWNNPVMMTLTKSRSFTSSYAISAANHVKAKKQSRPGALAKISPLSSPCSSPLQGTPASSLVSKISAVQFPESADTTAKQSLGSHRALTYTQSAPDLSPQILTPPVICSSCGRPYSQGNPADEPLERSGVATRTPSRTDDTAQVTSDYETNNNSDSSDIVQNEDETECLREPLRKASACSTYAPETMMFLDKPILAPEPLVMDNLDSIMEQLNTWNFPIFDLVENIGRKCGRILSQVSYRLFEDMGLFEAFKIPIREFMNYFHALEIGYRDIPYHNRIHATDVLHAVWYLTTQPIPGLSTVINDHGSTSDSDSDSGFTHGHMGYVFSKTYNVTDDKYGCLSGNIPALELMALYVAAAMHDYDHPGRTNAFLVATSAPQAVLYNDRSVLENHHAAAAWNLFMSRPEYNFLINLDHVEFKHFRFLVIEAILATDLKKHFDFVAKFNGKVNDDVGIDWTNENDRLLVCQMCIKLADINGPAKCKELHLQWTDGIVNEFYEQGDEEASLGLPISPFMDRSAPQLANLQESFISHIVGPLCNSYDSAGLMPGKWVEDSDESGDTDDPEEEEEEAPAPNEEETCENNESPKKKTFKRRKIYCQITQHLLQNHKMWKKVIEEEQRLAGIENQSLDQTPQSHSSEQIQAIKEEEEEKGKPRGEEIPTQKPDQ

| Compound | [IC50]theophylline / [IC50]substance (PDE III) | IC50 (PDE III) | [IC50]theophylline / [IC50]substance (PDE IV [1]) | -log[IC50] PDE IV canine trachea (PDE IV [1]) | Average percentage bronchospasmolytic action 0-1 h p. appl., % inhibition of the histamine-induced decrease in Vmaxe [2, 7] | Average percentage bronchospasmolytic action 0-1 h p. appl., % inhibition of the histamine-induced decrease in Vmaxe [2, 8] | Average percentage bronchospasmolytic action 0-1 h p. appl., % inhibition of the histamine-induced decrease in Vmaxe ([2]; i.v., 20 μmol/kg) | Average percentage bronchospasmolytic action 0-1 h p. appl., % inhibition of the histamine-induced decrease in Vmaxe ([2]; i.v., 60 μmol/kg) | [IC50]theophylline / [IC50]substance (PDE IV [3]) | -log[IC50] PDE IV PNMs (PDE IV [3]) | EC50 [4] | [EC50]theophylline / [EC50]substance [4] | responders at 100 µmol/kg [5] | EC50 [6] | Average percentage bronchospasmolytic action 0-1 h p. appl., % inhibition of the histamine-induced decrease in Vmaxe ([2]; i.j. (intrajejunal), 100 μmol/kg) | Average percentage bronchospasmolytic action 0-1 h p. appl., % inhibition of the histamine-induced decrease in Vmaxe ([2]; i.v., 100 μmol/kg) |
| --- | --- | --- | --- | --- | --- | --- | --- | --- | --- | --- | --- | --- | --- | --- | --- | --- |
| COc1ccc(-c2ccc(NC#N)nn2)cc1OC(C)C [Compound 3, 3-Cyanamino-6-[4-methoxy-3-(1-methylethoxy)phenyl]pyridazine] | 30.8 | 5250 nM | 82.2 | 5.75 | 29% | 65% | 28% | 65% | 117 | 5.82 | 417 nM | 324 | 70% | 646 nM |  |  |
| COc1ccc(-c2ccc(NC#N)nn2)cc1OCC(C)C [Compound 4, 3-Cyanamino-6-[4-methoxy-3-(2-methylpropoxy)phenyl]pyridazine] | 26.9 | 6030 nM | 355 | 6.36 | 39% | 60% | 37% | 87% | 357 | 6.33 | 112 nM | 1203 | 85% | 398 nM |  |  |
| CCOc1cc(-c2ccc(NC#N)nn2)ccc1OC(F)F [Compound 12, 3-Cyanamino-6-(4-difluoromethoxy-3-ethoxyphenyl)pyridazine] |  |  | 97.8 | 5.80 |  |  | 50% |  |  |  | 2450 nM | 55.0 | 70% |  |  |  |
| CCOc1ccc(-c2ccc(NC#N)nn2)cc1OCC(C)C [Compound 13, 3-Cyanamino-6-[4-ethoxy-3-(2-methylpropoxy)phenyl]pyridazine] |  |  |  |  |  |  | 28% |  | 263 | 6.18 | 537 nM | 251 | 65% |  |  |  |
| Cn1c(=O)c2[nH]cnc2n(C)c1=O [Theophylline, theophylline, reference compound] |  |  |  | 3.81 | 11% | 37% | 13% | 25% |  | 3.76 |  |  | 30% | 288000 nM | 45% | 34% |

From patent publication US5236918A, “6-aryl-3-cyanaminopyridazines, their preparation and use and medicaments containing them” (BYK Gulden Lomberg Chemische Fabrik GmbH, priority 1989, dated 1993)
